Assays:
Assay type in all cases: ADME; call rule not given here
[1] = molecular target: T1, Cytochrome P450 2B6 (Homo sapiens, UniProt P20813); experiment: Inactivation of C-terminal His4-tagged human CYP2B6 lacking 21 N-terminal residues expressed in Escherichia coli C41 (DE3) assessed as decreases in fluorescence intensity of 7-hydroxy-4-trifluoromethylcoumarin at 5 to 100 uM at 37 degC; conditions: TDE = time-dependent effect
T1 sequence (P20813 whole entry): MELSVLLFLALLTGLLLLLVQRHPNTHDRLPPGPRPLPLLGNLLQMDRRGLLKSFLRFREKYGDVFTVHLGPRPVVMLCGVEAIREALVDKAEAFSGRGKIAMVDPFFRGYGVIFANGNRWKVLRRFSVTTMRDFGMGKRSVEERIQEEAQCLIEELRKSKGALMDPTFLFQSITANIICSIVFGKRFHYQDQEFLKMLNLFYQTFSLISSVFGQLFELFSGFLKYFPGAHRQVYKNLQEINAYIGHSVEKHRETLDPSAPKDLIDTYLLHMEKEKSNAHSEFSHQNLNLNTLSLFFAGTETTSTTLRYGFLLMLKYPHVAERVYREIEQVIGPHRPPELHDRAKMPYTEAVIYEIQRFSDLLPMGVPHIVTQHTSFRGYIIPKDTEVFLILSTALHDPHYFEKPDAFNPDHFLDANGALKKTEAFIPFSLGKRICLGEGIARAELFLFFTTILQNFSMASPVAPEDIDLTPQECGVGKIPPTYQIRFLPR

[2] = molecular target: T1, Cytochrome P450 2B6; experiment: Inactivation of C-terminal His4-tagged human CYP2B6 lacking 21 N-terminal residues expressed in Escherichia coli C41 (DE3) assessed as decreases in fluorescence intensity of 7-hydroxy-4-trifluoromethylcoumarin up to 30 mins at 37 degC; conditions: 0.5 h
[3] = molecular target: T2, CYP2B6 (Homo sapiens, UniProt P20813); experiment: Inactivation of C-terminal His4-tagged human CYP2B6 lacking 21 N-terminal residues assessed as decrease in enzyme catalytic activity at 100 uM for 15 mins by spectral analysis in presence of NADPH
T2 sequence (P20813 whole entry): T1 sequence (P20813 whole entry)

[4] = molecular target: T1, Cytochrome P450 2B6; experiment: Irreversible inactivation of C-terminal His4-tagged human CYP2B6 lacking 21 N-terminal residues assessed as decrease in enzyme catalytic activity measured after overnight dialysis at 100 uM for 15 mins by spectral analysis in presence of NADPH; conditions: 0.25 h
[5] = molecular target: T1, Cytochrome P450 2B6; experiment: Irreversible inactivation of C-terminal His4-tagged human CYP2B6 lacking 21 N-terminal residues assessed as decrease in CO difference spectrum measured after overnight dialysis at 100 uM for 15 mins by spectral analysis in presence of NADPH; conditions: 0.25 h

CCC(=O)C(CC(C)N(C)C)(c1ccccc1)c1ccccc1 (racemic) [METHADONE]
inhibition (INH) [1]: tde | inhibition (INH) [2]: Dose-dependent effect | inhibition at 0.25 h, 100 µM [3]: 58% | inhibition (INH) [4]: Active | inhibition (INH) [5]: Active

— ChEMBL document CHEMBL3526042, “Mechanism-based inactivation of cytochrome P450 2B6 by methadone through destruction of prosthetic heme” (Drug Metab Dispos, 2012)
